Data set [1] is described as follows: Pharmacokinetic study of Compound A in mice: stability of the plasma samples (LC-MS/MS). It is filed as in vitro ADME. Conditions: mouse plasma samples, K2 EDTA. The procedure: Concentrations of Compound A in plasma were determined using high performance liquid chromatography with tandem mass spectrometry (LC MS/MS). All blood samples were transferred into commercial tube containing Potassium (K2) EDTA and processed for plasma. Samples were centrifuged (3000×g for 10 minutes at 2 to 8° C.) within one hour of collection. The assays used a Sciex API 4000 detector and nifedipine as an internal standard. The calibration ranges for Compound A for were 5.00 to 5000 ng/mL. The plasma concentration of Compound A in mice was subjected to a non-compartmental pharmacokinetic analysis by using the Phoenix WinNonlin software (version 6.3, Pharsight, Mountain View, CA). The nominal dose levels and nominal sampling times were used in the calculation of all pharmacokinetic parameters. The linear/log trapezoidal rule was applied in obtaining the PK parameters.

The subject of data set [2] is MDA-MB-231 tumor cells. Briefly: Overall survival of NSG mice implanted with MDA-MB-231 tumor cells, combination treatment with chemotherapy. It counts as in vivo, human. The procedure:
Vehicle solvent was given to control mice once a day for 6 days every week. Starting on day 15, doxorubicin hydrochloride (Sigma) (2 mg/kg) and cyclophosphamide monohydrate (Sigma) (60 mg/kg) were given to mice once a week for four weeks. Primary tumors were removed on day 29. Death of mice was used as the endpoint.

The subject of data set [3] is 4T1 breast tumor cells. As to the kind of experiment: Combination treatment with Compound A and immunotherapy, 4T1 tumor-bearing BALB/c mice, overall survival. It is filed as in vivo, mouse. The procedure:
Female BALB/c mice (6- to 8-week-old) were purchased from Charles River Laboratories. […] Mol Oncol 10, 966-980 (2016). Starting on day 8 or 22, Compound A was given to mice once every day for 5 days a week by oral gavage at 100 mg/kg per mouse. Tumor-bearing mice were given 10 mg/kg anti-PD-1 and 10 mg/kg anti-CTLA-4 antibodies i.p. on day 11, 13, 15, and 17 as previously described. Kim, K. et al. Eradication of metastatic mouse cancers resistant to immune checkpoint blockade by suppression of myeloid-derived cells. Proc Natl Acad Sci USA 111, 11774-11779 (2014). Control group mice were given control mouse IgG at the same time. Primary tumor volume was calculated as length×width^2×π/6.

Data set [4] has as its system MDA-MB-231 human breast tumor cells.
Method: MDA-MB-231 cells (subclone LM2) (1×10^5) suspended in PBS were injected subcutaneously into the abdominal mammary gland area of mice on day 1 as previously described. […] On the first day of the ninth week, the mice were killed. […] Numbers of metastatic MDA-MB-231 cells in lungs were determined by the clonogenic assay. In brief, lungs were removed from each mouse once sacrificed, finely minced and digested in 5 ml of enzyme cocktail containing 1×PBS and 1 mg/ml collagenase type IV for 2 h at 37° C. on a platform rocker. After incubation, samples were filtered through 70-μm nylon cell strainers and washed twice with PBS. Resulting cells were suspended, plated with a series of dilutions in 10 cm tissue culture dishes in medium containing 2.0 μg/ml puromycin for clonogenic growth. As these MBA-MB-231 tumor cells were stably transfected with the vector pSuper-puro, metastasized tumor cells formed foci after 14 days, at which time they were fixed with 4% paraformaldehyde and stained with crystal violet staining solution for counting.
The test system of data set [5] is 4T1 mouse breast tumor cells.
Method: Female BALB/c mice (6-8 week old) were purchased from Charles River. 4T1 tumor cells (1×10^5) were injected subcutaneously into the abdominal mammary gland area of mice using 0.1 ml of a single-cell suspension in PBS on Day 0 as previously described. […] Starting on Day 8, when the tumors averaged about ˜4-5 mm in diameter, Compound A or control solvent were given once or twice every day by oral gavage at 10, 30, 100 or 300 mg/kg per mouse until Day 27. On Day 28, the mice were sacrificed. […] Numbers of metastatic 4T1 cells in lungs were determined by the clonogenic assay. In brief, lungs were removed from each mouse, finely minced and digested in 5 ml of enzyme cocktail containing 1×PBS and 1 mg/ml collagenase type IV for 2 hours at 37° C. on a platform rocker. After incubation, samples were filtered through 70-μm nylon cell strainers and washed twice with PBS. Resulting cells were suspended, plated with a series of dilutions in 10 cm tissue culture dishes in DMEM medium containing 60 μM thioguanine for clonogenic growth. As 4T1 tumor cells are resistant to 6-thioguanine, metastasized tumor cells formed foci after 14 days, at which time they were fixed with 4% paraformaldehyde and stained with crystal violet staining solution for counting. […]

Consider one compound from patent publication US12508245B2, “Co-therapies including a metastasis inhibitor” (priority 2017, dated 2025).

For the compound `Cc1occc1C(=O)Nc1nn(Cc2ccc(C(F)(F)F)cc2)c2ccccc12` [NP-G2-044], the “stability after freeze-thaw, and during storage, processing and analysis” value in data set [1] is recorded as “stable”. The “overall survival of tumor-bearing mice” value in data set [2] (NSG mice, MDA-MB-231, primary tumors removed on Day 29, NP-G2-044 started on Day 1, chemotherapy for 4 weeks, death as endpoint (FIG. 2b)) is recorded as “increases overall survival”; in data set [3] (4T1 tumor-bearing mice, anti-PD-1 and anti-CTLA-4 antibodies, death as endpoint (FIG. 3c)), “increased the overall survival”. For the same compound, the “overall survival in the combination therapies, earlier versus late start of NP-G2-044” value in data set [2] (with chemotherapy, NP-G2-044 starting on day 1 or 8 compared with day 15 (FIG. 2d)) is “had better effect than late treatment”. Also, the “immunotherapy response (overall survival) in combination therapy, early treatment” value in data set [3] (NP-G2-044 starting on day 8, with anti-PD-1 and anti-CTLA-4 antibodies (FIG. 3e)) is on record as “boosted the immunotherapy response”. The “immunotherapy response (overall survival) in combination therapy, late treatment” value in data set [3] (NP-G2-044 starting on day 22, with anti-PD-1 and anti-CTLA-4 antibodies (FIG. 3e)) was “boosted the immunotherapy response”. Also, the “metastasis to the lung, single agent” value is recorded as “blocks tumor metastasis” in data set [4] (MDA-MB-231 cells implanted into the mammary fat pad, QD or BID (FIG. 1c-e)) and “blocks tumor metastasis” in data set [5] (4T1 cells implanted into the mammary fat pad (FIG. 1f-g)). In addition, the “tolerability of the dosage regimen” value is “well tolerated with no signs of overt toxicity” in data set [4] (in vivo) and “well tolerated with no signs of overt toxicity” in data set [5] (mouse, in vivo).
